Laboratory results taken from patent publication US20080097385A1, “Therapeutic Adjuncts to Enhance the Organ Protective Effects of Postconditioning” (priority 2004, published 2008).
Like-named read-outs stand apart in the source and are kept apart here.

Tests used:
[1] = tested on: anesthetized open-chest rats (LCA occlusion/reperfusion); experiment: Neutrophil (PMN) accumulation (myeloperoxidase activity) in the area at risk, rat LCA occlusion/reperfusion; type: in vivo; settings: postconditioning + antagonist, postconditioning 1.0±0.2, Control 2.2±0.4
Protocol: Adenosine is a mediator of the cardioprotection of postconditioning. Isolated-perfused mouse hearts were subjected to 20 min global ischemia (I) and 30 min reperfusion (R) with or without Postcon (6 cycles of 10 sec. R & occlusion). Intravascular purines in coronary effluent were analyzed by HPLC. To determine whether endogenous adenosine played a physiological role in postconditioning, the left coronary artery (LCA) was occluded for 30 min and reperfused for 3 hours in anesthetized open-chest rats. The rats were randomly divided into six groups (n=8 each): Control (no intervention); postconditioning (3 cycles of 10-s R followed by 10-s LCA I before 3 hours R); 8-SPT (subtype non-selective adenosine receptor antagonist, 10 mg/kg), or ZW241385 (A2a receptor antagonist, 0.2 mg/kg), was given 5 min before R with or without postconditioning. In mouse hearts, postconditioning decreased effluent [adenosine] at 2 min R (58±5* vs 155±16 nM/min/g), and improved contractile function (LV developed pressure 32±7* vs 16±2 mmHg) and end-diastolic pressure (27±3* vs 36±3 mmHg) at 5 min R which persisted at 30 min R. In in vivo rats, postconditioning reduced infarct size (TTC) vs the control group (40±3.1%* vs 52±2.2%). 8-SPT (51±2.5%) or ZM241385 alone (50±2.1%) without postconditioning had no effect on infarct size. […]

[2] = tested on: anesthetized open-chest rats (LCA occlusion/reperfusion); experiment: Anesthetized open-chest rats: LCA occlusion 30 min, reperfusion 3 h; infarct size (TTC) with adenosine receptor antagonists with or without postconditioning; type: in vivo; settings: rat
Protocol: Adenosine is a mediator of the cardioprotection of postconditioning. Isolated-perfused mouse hearts were subjected to 20 min global ischemia (I) and 30 min reperfusion (R) with or without Postcon (6 cycles of 10 sec. R & occlusion). Intravascular purines in coronary effluent were analyzed by HPLC. To determine whether endogenous adenosine played a physiological role in postconditioning, the left coronary artery (LCA) was occluded for 30 min and reperfused for 3 hours in anesthetized open-chest rats. The rats were randomly divided into six groups (n=8 each): Control (no intervention); postconditioning (3 cycles of 10-s R followed by 10-s LCA I before 3 hours R); 8-SPT (subtype non-selective adenosine receptor antagonist, 10 mg/kg), or ZW241385 (A2a receptor antagonist, 0.2 mg/kg), was given 5 min before R with or without postconditioning. In mouse hearts, postconditioning decreased effluent [adenosine] at 2 min R (58±5* vs 155±16 nM/min/g), and improved contractile function (LV developed pressure 32±7* vs 16±2 mmHg) and end-diastolic pressure (27±3* vs 36±3 mmHg) at 5 min R which persisted at 30 min R. In in vivo rats, postconditioning reduced infarct size (TTC) vs the control group (40±3.1%* vs 52±2.2%). 8-SPT (51±2.5%) or ZM241385 alone (50±2.1%) without postconditioning had no effect on infarct size. The infarct-sparing effect of postconditioning was abrogated by 8-SPT and ZM241385 (50±1.8% and 49±2.6%). Neutrophil (PMN) accumulation (myeloperoxidase activity) in the area at risk was less in postconditioning vs Control (1.0±0.2* vs 2.2±0.4 U/100 g protein); adenosine receptor antagonists blocked the reduction of PMN accumulation in postconditioning (postconditioning+8-SPT 2.1±0.2; postconditioning+ZM241385 1.6+0.2).

[3] = tested on: rat model of myocardial infarction; experiment: Rat model of myocardial infarction: LCA occlusion 30 min, reperfusion 3 h; infarct size with cariporide with or without postconditioning; type: in vivo
Protocol: Cross-hatched bar=time when the sodium-hydrogen exchange inhibitor (NHE-1), cariporide is administered intravenously. Vertical hatched bar=postconditioning algorithm. Control (n=8); occlusion of the left coronary artery (LCA) for 30 min (dark bar), was followed by 3 h of reperfusion (open bar). Post-con (n=8); 10 of full reperfusion (R, open bar) and 10 s of re-occlusion ischemia (I, dark bar) were repeated for three cycles. NHE(1) (n=8); cariporide (1 mg/kg) was injected 5 min prior to reperfusion, followed by unbridled R. NHE(1)+Post-con (n=8); cariporide followed by Post-con. Delay (D)-NHE(1) (n=8); cariporide was injected for 5 min after 1 min of full unbridled reperfusion. Post-con+D-NHE(1) (n=8); Post-con followed by injecting cariporide for 5 min. […] Infarct size is expressed as a percentage of AN and AAR. In all groups, infarct size decreased compared to that of Control. […] Post-con=postconditioning. Values are means ±SEM. Postconditioning can be enhanced by pharmacological means which capture the protective actions of the proximal mediators such as adenosine and opioids. In a rat model of myocardial infarction, it can be shown that the dual approach of attenuating reperfusion injury by applying postconditioning in the presence of a sodium-hydrogen exchange (NHE-1) inhibitor during early reperfusion achieves greater infarct size reduction than either intervention alone. Specifically, in an anesthetized rat model, the left coronary artery (LCA) was occluded for 30 min of ischemia (I) and reperfused for 3 hours. Rats were randomly divided into six groups (n=8 each) (FIG. 10): Control: no intervention at reperfusion; Postconditioning: three cycles of 10-s reperfusion followed by 10-s re-occlusion were applied during the first minute of reperfusion; NHE(1): cariporide (1 mg/kg) was infused 5 min before reperfusion, with or without postconditioning; Delayed (D)-NHE(1): a 5-minute infusion of cariporide was begun 1 min after onset of reperfusion equivalent to postconditioning period; Post-con+D-NHE(1): Completion of postconditioning was followed immediately by cariporide infusion for 5 min. […] When NHE(1) preceded postconditioning as a reperfusion intervention, infarct size was not further reduced (45±2%*) compared to either intervention alone. However, an additive reduction in infarct size was achieved when postconditioning preceded NHE(1) inhibitor at reperfusion (Post-con+D-N-HE(1), 34±2%). Thus, infarct size reduction by postconditioning is enhanced by NHE inhibition at reperfusion when postconditioning precedes cariporide administration.

[4] = tested on: rabbit model of myocardial infarction; settings: cited from earlier work
[5] = antagonist alone, given 5 min before reperfusion, without postconditioning, control 52±2.2%
[6] = antagonist given 5 min before reperfusion, with postconditioning, postconditioning alone 40±3.1%

Compound: Cn1c(=O)c2[nH]c(-c3ccc(S(=O)(=O)O)cc3)nc2n(C)c1=O [8-SPT]
- neutrophil (PMN) accumulation (myeloperoxidase activity) in the area at risk [1]: 2.1±0.2 U/100 g protein
- infarct size (TTC) [2, 5]: 51±2.5%
- infarct size (TTC) [2, 6]: 50±1.8%

Compound: Nc1nc(NCCc2ccc(O)cc2)nc2nc(-c3ccco3)nn12 [ZM241385]
- neutrophil (PMN) accumulation (myeloperoxidase activity) in the area at risk [1]: 1.6+0.2 U/100 g protein
- infarct size (TTC) [2, 5]: 50±2.1%
- infarct size (TTC) [2, 6]: 49±2.6%

Compound: CC(C)c1ccc(C(=O)NC(=N)N)cc1S(C)(=O)=O [cariporide]
- infarct size (AN as percentage of AAR) ([3]; NHE(1) alone: cariporide 1 mg/kg infused 5 min before reperfusion, no postconditioning): 43±2%
- infarct size (AN as percentage of AAR) ([3]; NHE(1)+Post-con: cariporide 1 mg/kg 5 min before reperfusion, followed by postconditioning): 45±2%
- decrease in infarct size compared with postconditioning alone ([3]; Post-con+D-NHE(1) group, FIG. 11): significantly greater than postconditioning alone
- infarct size (AN as percentage of AAR) ([3]; Post-con+D-NHE(1): postconditioning followed immediately by 5 min cariporide infusion): 34±2%

Compound: FC(F)OC(Cl)C(F)(F)F (stereo not shown) [isoflurane]
- infarct size ([4]; 0.5 minimum alveolar concentration isoflurane alone, control 41±2%): 43±3 % of the left ventricular area at risk
- infarct size ([4]; 1.0 minimum alveolar concentration isoflurane alone, control 41±2%): 21±2 % of the left ventricular area at risk
- infarct size ([4]; combined postconditioning (10 s) and 0.5 minimum alveolar concentration isoflurane): 17±5 % of the left ventricular area at risk
